Patent US9399631B2, “Polyphenol proteasome inhibitors, synthesis, and methods of use” (UNIVERSITY OF SOUTH FLORIDA, priority 2003, dated 2016)

Tested on: Jurkat T cells
Experiment: Western blot of proteasome target proteins in Jurkat T cells
Type: cell-based, human
Settings: for increase of IκB-α protein levels: at 6 hours
Description: Cell Culture, Cell Extract Preparation, and Western Blot Assay. Human leukemia Jurkat T and prostate cancer LNCaP cells were cultured in RPMI 1640 medium supplemented with 10% fetal calf serum, 100 units/ml of penicillin, and 100 μg/ml streptomycin. Human immortalized, non-transformed NK cells (YT cell line) (38) were cultured in RPMI 1640 supplemented with 1 mM MEM sodium pyruvate solution, 0.1 mM MEM non-essential amino acids solution, 10% fetal calf serum. 100 units/ml penicillin, and 100 μg/ml streptomycin. Normal (WI-38) and simian virus 40 (SV40)-transformed (VA-13) human fibroblasts were grown in Dulbecco's modified Eagle's medium supplemented with 10% fetal calf serum, 100 units/ml of penicillin and 100 μg/ml of streptomycin. All cells were maintained at 37° C. in a humidified incubator with an atmosphere of 5% CO2. A whole cell extract was prepared in accordance with An et al. (An, B. et al. Cell Death Differ, 1998, 5:1062-75). Briefly, cells were harvested, washed with PBS twice, and homogenized in a lysis buffer [50 mM Tris-HCl (pH 8.0), 5 mM EDTA, 150 mM NaCl, 0.5% NP-40, 0.5 mM phenylmethylsulfonyl fluoride, and 0.5 mM dithiothreitol] for 30 min at 4° C. Afterwards, lysates were centrifuged at 12,000×g for 15 min at 4° C., and the supernatants were collected as whole cell extracts. Equal amounts of protein extract (60 μg) were resolved by SDS-polyacrylamide gel electrophoresis and transferred to a nitrocellulose membrane using a Semi-Dry Transfer system (BIO-RAD, Hercules, Calif.). Jurkat T, LNCaP, or DU-145 cells were treated with various concentrations of synthetic or natural tea polyphenols for indicted hours. The enhanced chemiluminescence (ECL) Western blot analysis was then performed using specific antibodies to the proteins of interest (p^27kip, IκB-α, PARP, Bax or actin). The ratio of p27 or IκB-α to the corresponding actin was determined by scanning intensities of the protein bands.
Immortalized, non-transformed normal natural killer (NK) cells (YT line) (Drexler, H. G. et al. Leuk Res, 2000, 24:881-911) and human leukemic Jurkat T cells (as a control) were treated with either (−)-EGCG (as a comparison) or (−)-EGCG-amide for up to 12 hour. […] In contrast, IκB-α expression in non-transformed NK cells was unchanged during each treatment, although the basal level (and the mobility) of IκB-α protein was higher in NK cells (FIGS. 13A and 13B).
Having discovered that the synthetic GTP analogs are potent and specific inhibitors of the proteasomal chymotrypsin-like activity in vitro (FIGS. 16A, 17A, 17B, and 17C), it was then determined whether the synthetic compounds could also be effective in inhibiting intact tumor cell proteasome activity. Because inhibition of the proteasome activity in tumor cells would result in increased levels of proteasome target proteins, levels of p27 and IκB-α proteins were measured by Western blot assay in Jurkat T cells treated with each GTP. After a 12 hour treatment, (+)-EGCG at 10 μM accumulated p27 and IκB-α levels by 3.5- and 3.1-fold, respectively (FIG. 18A). In comparison, the natural (−)-EGCG accumulated p27 and IκB-α, to a slightly lesser extent, by 2.7- and 2.1-fold, respectively (FIG. 18A). In addition, synthetic (+)-GCG increased p27 and IκB-α levels by 3.7- and 3.3-fold, respectively, similar to the results from (−)-GCG treatment (FIG. 18A).

Compound	accumulation of IκB-α levels (10 μM, 12 hour treatment)	accumulation of p27 levels (10 μM, 12 hour treatment)	increase in IκB-α levels as compared to (−)-EGCG (10 μM, 12 hour treatment)	increase in p27 levels as compared to (−)-EGCG (10 μM, 12 hour treatment)	increase of IκB-α protein levels (treatment up to 12 hour)	increase of p27 levels (treatment up to 12 hour)
O=C(OC1Cc2c(O)cc(O)cc2OC1c1cc(O)c(O)c(O)c1)c1cc(O)c(O)c(O)c1 (single isomer, unassigned; (+)) [(+)-EGCG]	3.1 fold	3.5 fold	47%	~30%	–	–
O=C(OC1Cc2c(O)cc(O)cc2OC1c1cc(O)c(O)c(O)c1)c1cc(O)c(O)c(O)c1 (single isomer, unassigned; (+)) [(+)-GCG]	3.3 fold	3.7 fold	–	–	–	–
O=C(O[C@@H]1Cc2c(O)cc(O)cc2O[C@@H]1c1cc(O)c(O)c(O)c1)c1cc(O)c(O)c(O)c1 [(−)-EGCG, (−)-epigallocatechin-3-gallate, reference compound]	2.1 fold	2.7 fold	–	–	up to 6 fold	17 fold
O=C(N[C@@H]1Cc2c(O)cc(O)cc2O[C@@H]1c1cc(O)c(O)c(O)c1)c1cc(O)c(O)c(O)c1 [(−)-EGCG-amide, (−)-[2R,3R]-N-[5,7-Dihydroxy-2-(3,4,5-trihydroxyphenyl)-chroman-3-yl]-3,4,5-trihydroxybenzamide]	–	–	–	–	≤ 8 fold	–
